Publication PMC6692352, “DF2726A, a new IL-8 signalling inhibitor, is able to counteract chemotherapy-induced neuropathic pain” (Scientific Reports, 2019)

Legend:
[1] = design: method as in PMID 28423567; details: p.o. administration ref 22; cited from earlier work
F11 cells = assay: Cell viability assay in F11 neuronal cells; details: 24 h, 5–60 µM
Protocol: For the subsequent experiments, DF2726A was used at a final concentration of 1 µM, and oxaliplatin at a final concentration of 20 µM. For comparison, paclitaxel alone or in combination with DF2726A was also used.
F11 hybridoma cells (ECACC 08062601), chosen as a model of DRG neurons[22],[32],[33] were cultivated in DMEM (Euroclone, Milan, Italy) supplemented with 10% FBS (Sigma-Aldrich, St. Louis, MO, USA), 1% penicillin/streptomycin (Euroclone, MI, Italy) and 1% glutamine (Euroclone) at 37 °C, in humidified 95% air with 5% CO2 atmosphere. For all the experiments, cells were used at 18th passage.
Supplementary Fig. 2: Effect of DF2726A, oxaliplatin and paclitaxel treatment on neuronal cell
viability. Cell viability assay of F11 cells after treatment at different concentrations of DF 2726A
(DF; 1-20 µM), oxaliplatin (OXA, 5-60 µM), paclitaxel (PAC, 5-20 nM) and the combination of 20
µM oxaliplatin+DF2726A (Oxa+DF) and paclitaxel+DF2726A (PAC+DF) at 24 h. Data are means

CC(C)Cc1ccc([C@@H](C)C(=O)NS(C)(=O)=O)cc1 [reparixin]
half-life [1]: 1.78 h

O=C1[O][Pt]2([NH][C@@H]3CCCC[C@H]3[NH]2)[O]C1=O [oxaliplatin, reference compound]
Neuronal cell viability (F11 cells): ineffective in modulating neuronal cell viability
